The values below come from PMC8788879 (Nuclear medicine and biology, 2020).

In this experiment the target is Aβ1–40 fibrils (amyloid-β) (Homo sapiens, UniProt P05067). It counts as binding.

Molecules are shown by their SMILES.

Aβ1–40 fibrils (amyloid-β), sequence (P05067 672-711): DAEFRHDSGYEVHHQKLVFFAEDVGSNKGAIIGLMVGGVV

Molecule `COc1cc(/C=C/c2ccc(O)cc2)ccc1/C=C/c1ccc(O)cc1` [compound 2, methoxy-X04] had a Ki of 23.6 nM.

In turn, `COc1cc(/C=C/c2cc(C)c(O)c(C)c2)ccc1/C=C/c1ccc(C(=O)O)cc1` [compound 1, 4-((E)-4-((E)-4-hydroxy-3,5-dimethylstyryl)-2-methoxystyryl) benzoic acid] returned a Ki of 8.6 nM.
